Test results published in patent US20210196719A1, “USE OF CDK4/6 INHIBITOR IN COMBINATION WITH EGFR INHIBITOR IN THE PREPARATION OF MEDICAMENT FOR TREATING TUMOR DISEASES” (JIANGSU HENGRUI MEDICINE CO., LTD., priority 2018, published 2021).
Where two headings read alike, the source gives them in different places.

Assays:
[1] = test system: human lung cancer NCI-H1975 transplanted tumor; test: Human lung cancer NCI-H1975 transplanted tumor model of nude mice; conditions: for Tumor volume (mm^3) D 1: D 1 (at grouping); for Tumor volume (mm^3) D 1 / Tumor weight / RTV (relative tumor volume) / Tumor volume (mm^3) D 22: x ± SE; for Tumor weight: D 22, after sacrifice; for T/C(%) (relative tumor growth rate): TRTV/CRTV; for RTV (relative tumor volume): Vt/V0; for Tumor volume (mm^3) D 22: intragastric q.d. 21 days, gefitinib 30, drug A 100(50), drug B 5 mg/kg
[2] = mouse, in vivo
[3] = test system: human non-small cell lung adenocarcinoma cells (NCI-H1975); test: Proliferation inhibition of NCI-H1975 cells (SRB method, 7 days); assay type: cell-based; conditions: 168 h, read-out: Inhibition rate (%)
[4] = Body weight of nude mice in the NCI-H1975 transplanted tumor study; conditions: x ± SE

| Structure (SMILES) | Tumor volume (mm^3) D 1 [1] [mm^3] | Tumor weight [1] [g] | T/C(%) (relative tumor growth rate) ([1]; D 22) | RTV (relative tumor volume) ([1]; D 22) | IR (%) (tumor inhibition percentage) ([1]; D 22, by tumor weight vs control) | Tumor volume (mm^3) D 22 ([1]; D 22) [mm^3] | Average body weight (g) D 1 [2] [g] | inhibition at 0.005 µM ([3]; Drug B alone 5 nM) [%] | inhibition at 0.01 µM ([3]; Drug B alone 10 nM) [%] | Average body weight (g) D 1 ([4]; D 1, n=3) [g] | Average body weight (g) D 22 ([4]; D 22, intragastric q.d. 21 days, gefitinib 30, drug A 100(50), drug B 5 mg/kg) [g] |
| --- | --- | --- | --- | --- | --- | --- | --- | --- | --- | --- | --- |
| C=CC(=O)Nc1cc(Nc2nccc(-c3cn(C4CC4)c4ccccc34)n2)c(OC)cc1N(C)CCN(C)C [Drug B] | 130 ± 44 | 0.1091 ± 0.0621 | 26.14 | 1.25±0.53 | 81.69 | 125±58 | 22.8 ± 0.7 | 50.3 | 53.8 | – | – |
| COc1cc2ncnc(Nc3ccc(F)c(Cl)c3)c2cc1OCCCN1CCOCC1 [Gefitinib, gefitinib, reference compound] | 130 ± 41 | 0.4097 ± 0.1605 | 66.81 | 3.18±0.65 | – | 477±162 | – | – | – | 21.8 ± 0.6 | 24.5 ± 0.8 |
